Test results published in patent publication US20100136022A1, “METHOD FOR MODULATING THE IMMUNE RESPONSE BY ACTIVATING OR INACTIVATING THE NOTCH AND/OR STAT4 SIGNAL PATH” (DEUTSCHES RHEUMA-FORSCHUNGSZENTRUM BERLIN, priority 2007, published 2010).

Columns and labels:
[1] = tested on: CD11c-positive dendritic cells; test: Expression of Notch ligands in dendritic cells after TLR stimulation (Example 10); format: cell-based, mice; conditions: stimulation for 15 h; 50 μg/ml pIC, 1 μg/ml LPS, 1 μg/ml flagellin or 1 μM CpG; FIG. 11
Protocol: CD11c-positive dendritic cells were isolated from spleen and lymphatic nodes of naive mice using flow cytometry and stimulated with 50 μg/ml pIC (TLR3), 1 μg/ml LPS (TLR4), 1 μg/ml flagellin (TLR5) or 1 μM CpG (TLR9) for 15 h.

Notch = test: IL-10 expression in lymphatic node cells after transfer of OVA-specific Th cells and OVA/CpG immunization (Example 12); format: in vivo; conditions: mice received 10 μM/kg; lymphatic node cells after 5 days; FIG. 13
Protocol: 1·10^7 antigen specific (OVA-TZR transgenic) naive Th cells were transferred into recipient mice which were subsequently immunized s.c. with 50 μg of OVA/20 μg of CpG. After 5 days the lymphatic node cells were restimulated with PMA/ionomycin and analyzed using intracellular cytokine staining. IFN-γ/IL-10 double-positive cells were induced under these conditions. The expression of IL-10 was blocked in mice which had received 10 μM/kg of a Notch inhibitor (γ-secretase inhibitor, DBZ, Syncom) (FIG. 13).

Notch signaling pathway [2] = test: IL-10 induction in T helper cells cocultured with A20-B cells expressing Notch ligands DII-1 or DII-4 (Example 9); format: cell-based, mouse; conditions: 125 nM inhibitor; IL-12 10 ng/ml, OVA peptide, 5 days, intracellular staining; FIG. 10A
Protocol: Antigen-specific (OVA-TZR transgenic) naive CD4+CD25-CD62L+T helper cells were isolated using flow cytometry, cultured with A20-B cells (at a ratio of 2:1) in the presence of IL-12 (10 ng/ml), which cells express the Notch ligands DII-1 or DII-4, and stimulated with OVA peptide (0.2 μg/ml). After 5 days the cells were restimulated with PMA/ionomycin, and their cytokine expression was analyzed using intracellular staining.
This induction can be blocked in a specific manner by an inhibitor of the Notch signaling pathway (γ-secretase inhibitor, 125 nM Insolution γ-secretase inhibitor X, Calbiochem) (FIG. 10A). Further coculturing in the presence of the DII-1 and DII-4 ligands dramatically increases the IL-10 production (FIG. 10B).

Notch signaling pathway [3] = test: IL-10 expression of human T cells cocultured with plasmacytoid or myeloid dendritic cells (Example 15); format: cell-based; conditions: 85 nM inhibitor, SEB 1 μg/ml, 6 days
Notch signaling pathway [4] = test: IL-10 induction in T helper cells cultured with CD11c+ dendritic cells, IL-12 and/or CpG (Example 11); format: cell-based, mouse; conditions: 125 nM inhibitor, OVA peptide, 5 days, FIG. 12
Protocol: Antigen-specific (OVA-TZR transgenic) naive CD4+CD25-CD62L+T helper cells were isolated using flow cytometry, cultured with CD11c+ dendritic cells from spleen and lymphatic nodes (at a ratio of 20:1) in the presence of IL-12 (10 ng/ml) and/or 1 μM CpG and stimulated with OVA peptide (0.2 μg/ml). After 5 days the cells were restimulated with PMA/ionomycin, and their cytokine expression was analyzed using intracellular staining.
The expression of IL-10 can be blocked by a specific inhibitor of the Notch signaling pathway (γ-secretase inhibitor, Calbiochem, 125 nM).

STAT4 = test: IL-10 production (ELISA) of Notch3IC-transduced Th cells cultured with interleukin 27 (Example 5); format: cell-based, mice; conditions: 10 ng/ml interleukin 27, wild-type vs STAT4-deficient, FIG. 6
Protocol: Naive CD4+-CD25-CD62L+T helper cells from wild-type (C57BU6) or STAT4-deficient mice were isolated using flow cytometry. The cells were subsequently cultured with irradiated (30 Gy) MHCII+ antigen-presenting cells at a ratio of 1:4 in the presence of interleukin 27 (10 ng/ml). Stimulation was effected polyclonally using 0.5 μg/ml anti-CD3 and 1 μg/ml anti-CD28. After 24 h the cells were retro-virally transduced with active Notch3 (Notch3IC). To this end, the cells were centrifuged with virus supernatant for 75 min at 750×g and 32° C. After 5 days the cells were restimulated with PMA/ionomycin, and their cytokine production was analyzed using ELISA.
No IL-10 production is observed in the event of STAT4-deficient cells.

Molecule: flagellin
- Expression of Delta-like 1 [1]: largely unchanged
- Expression of Jagged 1 [1]: largely unchanged
- expression of the Delta-like 4 Notch ligand [1]: enhanced

Molecule: C[C@H](NC(=O)Cc1cc(F)cc(F)c1)C(=O)N[C@@H]1C(=O)N(C)c2ccccc2-c2ccccc21 [DBZ]
- expression of IL-10 (IFN-γ/IL-10 double-positive cells) (Notch): blocked

Molecule: CC(C)C[C@H](NC(=O)[C@H](Cc1ccccc1)C[C@@H](O)[C@H](Cc1ccccc1)NC(=O)OC(C)(C)C)C(=O)N[C@@H](Cc1ccccc1)C(N)=O [Insolution γ-secretase inhibitor X]
- IL-10 production induced by coculturing with Delta-like ligands (Notch signaling pathway [2]): blocked
- IL-10 expression, naive T cells cocultured with plasmacytoid dendritic cells (Notch signaling pathway [3]; FIG. 16A): blocked
- IL-10 production, memory T cells cocultured with plasmacytoid or myeloid dendritic cells (Notch signaling pathway [3]; FIG. 16B): blocked in either case
- expression of IL-10 in the T cells (Notch signaling pathway [4]): blocked

B1: IL-27: STAT4-activating cytokine of the IL-12 family (protein, UniProt Q8NEV9 29-243; Q14213 21-229, looked up)
Interleukin-27 subunit alpha: FPRPPGRPQLSLQELRREFTVSLHLARKLLSEVRGQAHRFAESHLPGVNLYLLPLGEQLPDVSLTFQAWRRLSDPERLCFISTTLQPFHALLGGLGTQGRWTNMERMQLWAMRLDLRDLQRHLRFQVLAAGFNLPEEEEEEEEEEEEERKGLLPGALGSALQGPAQVSWPQLLSTYRLLHSLELVLSRAVRELLLLSKAGHSVWPLGFPTLSPQP
Interleukin-27 subunit beta: RKGPPAALTLPRVQCRASRYPIAVDCSWTLPPAPNSTSPVSFIATYRLGMAARGHSWPCLQQTPTSTSCTITDVQLFSMAPYVLNVTAVHPWGSSSSFVPFITEHIIKPDPPEGVRLSPLAERQLQVQWEPPGSWPFPEIFSLKYWIRYKRQGAARFHRVGPIEATSFILRAVRPRARYYVQVAAQDLTDYGELSDWSLPATATMSLGK
- IL-10 production together with Notch, STAT4-dependent (STAT4): induction of IL-10
